Data as given in patent US7964556B1, “Antimicrobial peptides and use thereof” (Toagosei Co., Ltd, priority 2004, dated 2011).
Read-outs that look alike come from different tables or passages of the source. Where a SMILES comes first, the peptide text is derived from it.

Tests used:
Staphylococcus aureus = assay type: cell-based; settings: for antimicrobial activities against gram-positive bacteria (S. aureus), in words: summary of Table 2
Method: (§1) Regarding the antimicrobial peptide in samples 1 to 14 and the comparative sample 1, the antimicrobial activities (minimum inhibitory concentration: MIC) with respect to gram-negative bacteria (Escherichia coli) and gram-positive bacteria (Staphylococcus aureus) were determined, as described below, by a liquid medium dilution technique using a 96-well microplate. First, a drug (synthesized peptide) solution having a concentration of 40 times of the highest test concentration was prepared using sterile distilled water, and thereafter liquid-bouillon mediums (“NUTRIENT BROTH Dehydrated” manufactured by DIFCO) having peptide concentrations of 200, 100, 50, 25, 12.5, 6.25, 3.13, 1.56 and 0.78 μM were produced respectively. The produced liquid-bouillon mediums including the peptide of each concentration were then fed to the 96-well microplate at 100 μL a time.
(§2) At the same time, test bacteria cultured for 18 hours at 37° C. on an agar plate (“Muller Hinton Agar” manufactured by DIFCO) were gathered by scratching with a loop, and then suspended in a sterilized physiological saline. Bacterial suspension 5 μL prepared at an equivalent of 2×10^7 cells/mL was respectively inoculated (number of bacteria to be tested: approximately 1×10^6 cells/mL) onto the above-described liquid-bouillon mediums including the peptide of each concentration and fed to each well of the above-described microplate. After inoculation, the microplate was then incubated in an incubator at 37° C., and the presence of bacteria was evaluated based on the turbidity 24 hours later. The minimum drug concentration (peptide concentration), in which an increased in turbidity caused by bacteria was not detected at the time of measurement, was defined as MIC (minimum inhibitory concentration) (unit: μM) in the present embodiment.

Escherichia coli = assay type: cell-based
Method: as §1, §2

[1] = liquid-bouillon medium (Nutrient Broth), 37° C., turbidity after 24 hours

**Q.** Which “Antimicrobial Activities (MIC) S. aureus” value (Staphylococcus aureus; 24 h) does the source give for CC(C)[C@H](NC(=O)[C@H](C)NC(=O)[C@@H](NC(=O)[C@H](CCCCN)NC(=O)[C@H](CCCCN)NC(=O)[C@@H](NC(=O)[C@H](CCCNC(=N)N)NC(=O)[C@@H](NC(=O)[C@@H](NC(=O)[C@H](C)NC(=O)[C@@H](NC(=O)[C@H](CCCCN)NC(=O)[C@@H](N)CCCCN)C(C)C)C(C)C)C(C)C)[C@@H](C)O)C(C)C)C(=O)N[C@H](C(=O)N[C@@H](CCCNC(=N)N)C(=O)N[C@H](C(N)=O)[C@@H](C)O)C(C)C [Sample 8, KKVAVVRTKKVAVVRT] (H-KKVAVVRTKKVAVVRT-NH2) here?
**A.** 6.25 µM

**Q.** What about the “antimicrobial activities against gram-positive bacteria (S. aureus), in words” value (“antimicrobial activities … (S. aureus), in words” below) (Staphylococcus aureus) of the same molecule?
**A.** particularly high antimicrobial activities

**Q.** What about the “Antimicrobial Activities (MIC) E. coli” value (Escherichia coli; 24 h) of the same molecule?
**A.** 50 µM

**Q.** What does the source list for CC(C)[C@H](NC(=O)[C@H](C)NC(=O)[C@@H](NC(=O)[C@H](CCCCN)NC(=O)[C@@H](N)CCCCN)C(C)C)C(=O)N[C@H](C(=O)N[C@@H](CCCNC(=N)N)C(N)=O)C(C)C [Sample 1, KKVAVVR] (H-KKVAVVR-NH2)?
**A.** Antimicrobial Activities (MIC) S. aureus (Staphylococcus aureus; 24 h): 50 µM; Antimicrobial Activities (MIC) E. coli (Escherichia coli; 24 h): 200 µM

**Q.** Which “Antimicrobial Activities (MIC) S. aureus” value (Staphylococcus aureus; 24 h) does the source give for CC[C@H](C)[C@H](NC(=O)[C@H](CCC(N)=O)NC(=O)[C@@H](NC(=O)[C@H](CCCCN)NC(=O)[C@H](Cc1ccc(O)cc1)NC(=O)[C@@H](NC(=O)[C@@H](NC(=O)[C@H](CCC(N)=O)NC(=O)[C@@H](N)C(C)C)[C@@H](C)CC)C(C)C)C(C)C)C(=O)N[C@H](C(=O)N[C@@H](Cc1ccc(O)cc1)C(=O)N[C@@H](CCCCN)C(N)=O)C(C)C [Sample 14, VQIVYKVQIVYK] (H-VQIVYKVQIVYK-NH2) here?
**A.** 25 µM

**Q.** And the “antimicrobial activities … (S. aureus), in words” value (Staphylococcus aureus)?
**A.** particularly high antimicrobial activities

**Q.** And the “Antimicrobial Activities (MIC) E. coli” value (Escherichia coli; 24 h)?
**A.** 50 µM

**Q.** What does the source list for CC(C)[C@H](NC(=O)[C@H](C)NC(=O)[C@@H](NC(=O)[C@H](CCCCN)NC(=O)[C@H](CCCCN)NC(=O)[C@H](CCCNC(=N)N)NC(=O)[C@@H](NC(=O)[C@@H](NC(=O)[C@H](C)NC(=O)[C@@H](NC(=O)[C@H](CCCCN)NC(=O)[C@@H](N)CCCCN)C(C)C)C(C)C)C(C)C)C(C)C)C(=O)N[C@H](C(=O)N[C@@H](CCCNC(=N)N)C(N)=O)C(C)C [Sample 5, KKVAVVRKKVAVVR] (H-KKVAVVRKKVAVVR-NH2)?
**A.** Antimicrobial Activities (MIC) S. aureus (Staphylococcus aureus; 24 h): 12.5 µM; antimicrobial activities against gram-positive bacteria (S. aureus), in words (Staphylococcus aureus): particularly high antimicrobial activities; Antimicrobial Activities (MIC) E. coli (Escherichia coli; 24 h): 100 µM

**Q.** CC[C@H](C)[C@H](NC(=O)[C@H](CCC(N)=O)NC(=O)[C@@H](NC(=O)[C@@H](N)CCCCN)C(C)C)C(=O)N[C@H](C(=O)N[C@@H](CC(N)=O)C(=O)N[C@@H](CCCCN)C(=O)N[C@@H](CCCCN)C(N)=O)[C@@H](C)CC [Sample 2, KVQIINKK] (H-KVQIINKK-NH2; N-terminus assumed) was tested. Which “Antimicrobial Activities (MIC) S. aureus” value (Staphylococcus aureus; 24 h) did it give?
**A.** 200 µM

**Q.** What about the “Antimicrobial Activities (MIC) E. coli” value (Escherichia coli; 24 h) of the same molecule?
**A.** 200 µM

**Q.** What does the source list for CC(C)C[C@H](NC(=O)[C@H](CCCNC(=N)N)NC(=O)[C@H](CCC(=O)O)NC(=O)[C@H](CC(C)C)NC(=O)[C@@H]1CCCN1C(=O)[C@@H]1CCCN1C(=O)[C@@H](N)CC(C)C)C(=O)N[C@H](C(=O)N[C@@H](CC(C)C)C(=O)N[C@@H](CC(=O)O)C(N)=O)[C@@H](C)O [Comparative Sample 1, LPPLERLTLD, reference compound] (H-LPPLERLTLD-NH2)?
**A.** Antimicrobial Activities (MIC) S. aureus (Staphylococcus aureus; [1]): >200 µM; antimicrobial activities against gram-positive bacteria (S. aureus), in words (Staphylococcus aureus): no antimicrobial activity; Antimicrobial Activities (MIC) E. coli (Escherichia coli; [1]): >200 µM; antimicrobial activities against E. coli, in words (Escherichia coli; summary of Table 2): no antimicrobial activity

**Q.** What does the source list for CC[C@H](C)[C@H](NC(=O)[C@H](CCC(N)=O)NC(=O)[C@@H](NC(=O)[C@H](CCCCN)NC(=O)[C@H](CCCCN)NC(=O)[C@H](CCCCN)NC(=O)[C@H](CC(N)=O)NC(=O)[C@@H](NC(=O)[C@@H](NC(=O)[C@H](CCC(N)=O)NC(=O)[C@@H](NC(=O)[C@@H](N)CCCCN)C(C)C)[C@@H](C)CC)[C@@H](C)CC)C(C)C)C(=O)N[C@H](C(=O)N[C@@H](CC(N)=O)C(=O)N[C@@H](CCCCN)C(=O)N[C@@H](CCCCN)C(N)=O)[C@@H](C)CC [Sample 6, KVQIINKKKVQIINKK] (H-KVQIINKKKVQIINKK-NH2)?
**A.** Antimicrobial Activities (MIC) S. aureus (Staphylococcus aureus; 24 h): 1.56 µM; antimicrobial activities against gram-positive bacteria (S. aureus), in words (Staphylococcus aureus): particularly high antimicrobial activities; Antimicrobial Activities (MIC) E. coli (Escherichia coli; 24 h): 6.25 µM

**Q.** For CC[C@H](C)[C@H](NC(=O)[C@H](CCC(N)=O)NC(=O)[C@@H](NC(=O)[C@@H](N)CCCCN)C(C)C)C(=O)N[C@H](C(=O)N[C@@H](CC(N)=O)C(=O)N[C@@H](CCCCN)C(=O)N[C@@H](CCCCN)C(=O)N[C@@H](CC(C)C)C(=O)N[C@@H](CC(=O)O)C(=O)N[C@H](C(=O)N[C@@H](CO)C(=O)N[C@@H](CC(N)=O)C(=O)N[C@@H](CC(C)C)C(=O)N[C@@H](CCSC)C(=O)N[C@@H](Cc1c[nH]c2ccccc12)C(=O)N[C@@H](Cc1c[nH]c2ccccc12)C(=O)N[C@@H](CC(C)C)C(=O)N[C@@H](CC(C)C)C(N)=O)C(C)C)[C@@H](C)CC [Sample 11, KVQIINKKLDVSNLMWWLL] (H-KVQIINKKLDVSNLMWWLL-NH2), which “Antimicrobial Activities (MIC) S. aureus” value (Staphylococcus aureus; 24 h) is on record?
**A.** 12.5 µM

**Q.** And the “antimicrobial activities … (S. aureus), in words” value (Staphylococcus aureus)?
**A.** particularly high antimicrobial activities

**Q.** And the “Antimicrobial Activities (MIC) E. coli” value (Escherichia coli; 24 h)?
**A.** 25 µM

**Q.** Which results are given for CC[C@H](C)[C@H](NC(=O)[C@H](CCC(N)=O)NC(=O)[C@@H](NC(=O)[C@H](CCCNC(=N)N)NC(=O)[C@H](CCC(N)=O)NC(=O)[C@H](CC(C)C)NC(=O)[C@H](CCCCN)NC(=O)[C@H](CCCNC(=N)N)NC(=O)[C@H](CCCCN)NC(=O)[C@@H](N)CC(C)C)C(C)C)C(=O)N[C@H](C(=O)N[C@@H](Cc1ccc(O)cc1)C(=O)N[C@@H](CCCCN)C(N)=O)C(C)C [Sample 3, LKRKLQRVQIVYK] (H-LKRKLQRVQIVYK-NH2)?
**A.** Antimicrobial Activities (MIC) S. aureus (Staphylococcus aureus; 24 h): 3.13 µM; antimicrobial activities against gram-positive bacteria (S. aureus), in words (Staphylococcus aureus): particularly high antimicrobial activities; Antimicrobial Activities (MIC) E. coli (Escherichia coli; 24 h): 6.25 µM

**Q.** With CC(C)[C@H](NC(=O)[C@H](C)NC(=O)[C@@H](NC(=O)[C@H](CCCCN)NC(=O)[C@H](CCCCN)NC(=O)[C@@H](NC(=O)[C@H](CCCCN)NC(=O)[C@H](CCCNC(=N)N)NC(=O)[C@H](CCCCN)NC(=O)[C@H](CCCCN)NC(=O)[C@H](CCCCN)NC(=O)[C@@H](N)CCCNC(=N)N)C(C)C)C(C)C)C(=O)N[C@H](C(=O)N[C@@H](CCCNC(=N)N)C(N)=O)C(C)C [Sample 7, RKKKRKVKKVAVVR] (H-RKKKRKVKKVAVVR-NH2) as the molecule, how does the “Antimicrobial Activities (MIC) S. aureus” value (Staphylococcus aureus; 24 h) read?
**A.** 3.13 µM

**Q.** And the “antimicrobial activities … (S. aureus), in words” value (Staphylococcus aureus)?
**A.** particularly high antimicrobial activities

**Q.** And the “Antimicrobial Activities (MIC) E. coli” value (Escherichia coli; 24 h)?
**A.** 6.25 µM

**Q.** How did the “Antimicrobial Activities (MIC) S. aureus” value (Staphylococcus aureus; [1]) turn out when CC[C@H](C)[C@H](NC(=O)[C@H](CCC(N)=O)NC(=O)[C@@H](NC(=O)[C@H](CCCCN)NC(=O)[C@@H](NC(=O)[C@@H](NC(=O)[C@@H](NC(=O)[C@H](CCCNC(=N)N)NC(=O)[C@H](CCCCN)NC(=O)[C@H](CCCCN)NC(=O)[C@H](CCCNC(=N)N)NC(=O)[C@@H]1CCCN1C(=O)[C@@H]1CCCN1)[C@@H](C)O)C(C)C)C(C)C)C(C)C)C(=O)N[C@H](C(=O)N[C@@H](CC(N)=O)C(=O)N[C@@H](CCCCN)C(=O)N[C@@H](CCCCN)C(N)=O)[C@@H](C)CC [Sample 13, PPRKKRTVVKVQIINKK] (H-PPRKKRTVVKVQIINKK-NH2) was run?
**A.** 0.78 µM

**Q.** And the “antimicrobial activities … (S. aureus), in words” value (Staphylococcus aureus)?
**A.** particularly high antimicrobial activities

**Q.** And the “Antimicrobial Activities (MIC) E. coli” value (Escherichia coli; [1])?
**A.** 3.13 µM

**Q.** For CC[C@H](C)[C@H](NC(=O)[C@H](CCC(N)=O)NC(=O)[C@@H](NC(=O)[C@H](CCCNC(=N)N)NC(=O)[C@H](CCC(N)=O)NC(=O)[C@H](CC(C)C)NC(=O)[C@H](CCCCN)NC(=O)[C@H](CCCNC(=N)N)NC(=O)[C@H](CCCCN)NC(=O)[C@@H](N)CC(C)C)C(C)C)C(=O)N[C@H](C(=O)N[C@@H](CC(N)=O)C(=O)N[C@@H](CCCCN)C(N)=O)[C@@H](C)CC [Sample 4, LKRKLQRVQIINK] (H-LKRKLQRVQIINK-NH2), which “Antimicrobial Activities (MIC) S. aureus” value (Staphylococcus aureus; 24 h) is on record?
**A.** 6.25 µM

**Q.** What about the “antimicrobial activities … (S. aureus), in words” value (Staphylococcus aureus) of the same molecule?
**A.** particularly high antimicrobial activities

**Q.** And the “Antimicrobial Activities (MIC) E. coli” value (Escherichia coli; 24 h)?
**A.** 100 µM

**Q.** With CC[C@H](C)[C@H](NC(=O)[C@H](CCC(N)=O)NC(=O)[C@@H](NC(=O)[C@@H](N)CCCCN)C(C)C)C(=O)N[C@H](C(=O)N[C@@H](CC(N)=O)C(=O)N[C@@H](CCCCN)C(=O)N[C@@H](CCCCN)C(=O)N[C@@H](CC(C)C)C(=O)N[C@@H](CCSC)C(=O)N[C@@H](Cc1c[nH]c2ccccc12)C(=O)N[C@@H](Cc1c[nH]c2ccccc12)C(=O)N[C@@H](CC(C)C)C(=O)N[C@@H](CC(C)C)C(N)=O)[C@@H](C)CC [Sample 12, KVQIINKKLMWWLL] (H-KVQIINKKLMWWLL-NH2) as the molecule, how does the “Antimicrobial Activities (MIC) S. aureus” value (Staphylococcus aureus; 24 h) read?
**A.** 3.13 µM

**Q.** And the “antimicrobial activities … (S. aureus), in words” value (Staphylococcus aureus)?
**A.** particularly high antimicrobial activities

**Q.** What about the “Antimicrobial Activities (MIC) E. coli” value (Escherichia coli; 24 h) of the same molecule?
**A.** 12.5 µM
